Earlier results as cited in patent publication US20050182028A1, “Pharmaceutical formulation for oral delivery of bisphosphates” (priority 2004, published 2005).

Conditions: background statement

For O=P(O)(O)C(O)(Cc1cccnc1)P(=O)(O)O [risedronate, Risedronate], the oral bioavailability is listed as 0.63%.
